Laboratory results taken from patent US20230150970A1, “AMINOPYRIMIDINE DERIVATIVES AND THEIR USE AS ARYL HYDROCARBON RECEPTOR MODULATORS” (DONG-A ST CO., LTD., priority 2020, published 2023).

Target: T1, AhR (Homo sapiens, UniProt P35869)
T1 sequence (P35869 11-848): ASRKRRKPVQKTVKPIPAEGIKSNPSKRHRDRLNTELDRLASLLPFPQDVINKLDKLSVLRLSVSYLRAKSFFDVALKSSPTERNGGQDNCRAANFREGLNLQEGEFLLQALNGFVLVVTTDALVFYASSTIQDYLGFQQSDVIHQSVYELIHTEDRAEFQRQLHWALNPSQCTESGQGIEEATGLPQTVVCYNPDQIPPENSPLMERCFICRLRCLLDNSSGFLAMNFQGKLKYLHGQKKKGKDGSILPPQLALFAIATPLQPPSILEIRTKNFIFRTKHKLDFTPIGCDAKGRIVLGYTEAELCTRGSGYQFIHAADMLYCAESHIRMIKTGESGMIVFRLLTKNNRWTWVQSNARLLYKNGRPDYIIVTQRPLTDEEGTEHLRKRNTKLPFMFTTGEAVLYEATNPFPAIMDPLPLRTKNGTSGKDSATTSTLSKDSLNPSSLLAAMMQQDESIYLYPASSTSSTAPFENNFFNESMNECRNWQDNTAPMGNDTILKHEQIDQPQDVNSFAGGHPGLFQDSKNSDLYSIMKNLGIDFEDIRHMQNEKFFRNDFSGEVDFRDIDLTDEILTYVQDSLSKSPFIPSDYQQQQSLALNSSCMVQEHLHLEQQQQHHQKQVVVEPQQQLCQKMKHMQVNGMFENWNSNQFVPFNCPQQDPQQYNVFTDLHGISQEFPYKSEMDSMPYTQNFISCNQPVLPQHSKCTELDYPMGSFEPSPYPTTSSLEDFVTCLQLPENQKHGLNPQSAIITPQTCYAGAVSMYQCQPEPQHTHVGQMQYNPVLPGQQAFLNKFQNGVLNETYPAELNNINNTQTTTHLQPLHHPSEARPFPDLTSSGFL
Test: In Vitro Assay 1: XRE-luciferase reporter assay, antagonism in human cell line (HepG2)
Conditions: Assay 1: AhR-Luc Human Antagonism (IC50, nM), unmarked values: kynurenine 200 μM, 6 hours

SMILES | IC50 [nM]
CC(O)C(=O)NC1CCN(c2cc(-c3ccc(Cl)cc3)nc(-c3cccnc3)n2)CC1 (centres unmarked) [Example 237, N-(1-(6-(4-chlorophenyl)-2-(pyridin-3-yl)pyrimidin-4-yl)piperidin-4-yl)-2-hydroxypropanamide] | 10 to 100
O=C(CO)NC1CCN(c2cc(-c3ccc(Cl)cc3)nc(-c3cccnc3)n2)CC1 [Example 238, N-(1-(6-(4-chlorophenyl)-2-(pyridin-3-yl)pyrimidin-4-yl)piperidin-4-yl)-2-hydroxyacetamide] | 10 to 100
OC[C@H]1CCN(c2cc(-c3ccc(Cl)cc3)nc(-c3cccnc3)n2)C1 [Example 240, (S)-(1-(6-(4-chlorophenyl)-2-(pyridin-3-yl)pyrimidin-4-yl)pyrrolidin-3-yl)methanol] | < 10
CC(=O)N[C@@H]1CN(c2cc(-c3ccc(Cl)cc3)nc(-c3cccnc3)n2)C[C@H]1O [Example 241, N-((3R,4R)-1-(6-(4-chlorophenyl)-2-(pyridin-3-yl)pyrimidin-4-yl)-4-hydroxypyrrolidin-3-yl)acetamide] | 10 to 100
CC(=O)N[C@@H]1CN(c2cc(-c3ccc(Cl)cc3)nc(-c3cccnc3)n2)C[C@H]1OC(C)=O [Example 242, (3R,4R)-4-acetamido-1-(6-(4-chlorophenyl)-2-(pyridin-3-yl)pyrimidin-4-yl)pyrrolidin-3-yl acetate] | 10 to 100
CC(=O)N[C@H]1CN(c2cc(-c3ccc(Cl)cc3)nc(-c3cccnc3)n2)C[C@H]1O [Example 244, N-((3S,4R)-1-(6-(4-chlorophenyl)-2-(pyridin-3-yl)pyrimidin-4-yl)-4-hydroxypyrrolidin-3-yl)acetamide] | > 1000
CC(=O)N[C@H]1CN(c2cc(-c3ccc(Cl)cc3)nc(-c3cccnc3)n2)C[C@@H]1O [Example 245, N-((3S,4S)-1-(6-(4-chlorophenyl)-2-(pyridin-3-yl)pyrimidin-4-yl)-4-hydroxypyrrolidin-3-yl)acetamide] | 10 to 100
OC[C@H]1CCN(c2cc(-c3ccc(Cl)cc3)nc(-c3cccnc3)n2)C[C@H]1O [Example 247, (3S,4R)-1-(6-(4-chlorophenyl)-2-(pyridin-3-yl)pyrimidin-4-yl)-4-(hydroxymethyl)piperidin-3-ol] | 10 to 100
OC[C@H]1CCN(c2cc(-c3ccc(C(F)(F)F)cc3)nc(-c3cccnc3)n2)C[C@H]1O [Example 248, (3S,4R)-4-(hydroxymethyl)-1-(2-(pyridin-3-yl)-6-(4-(trifluoromethyl)phenyl)pyrimidin-4-yl)piperidin-3-ol] | 10 to 100
OC[C@H]1CCN(c2cc(-c3ccc(Cl)cc3)nc(-c3cccnc3)n2)C[C@H]1F [Example 249, ((3S,4R)-1-(6-(4-chlorophenyl)-2-(pyridin-3-yl)pyrimidin-4-yl)-3-fluoropiperidin-4-yl)methanol] | 10 to 100
OC[C@H]1CCN(c2cc(-c3ccc(C(F)(F)F)cc3)nc(-c3cccnc3)n2)C[C@H]1F [Example 250, ((3S,4R)-3-fluoro-1-(2-(pyridin-3-yl)-6-(4-(trifluoromethyl)phenyl)pyrimidin-4-yl)piperidin-4-yl)methanol] | < 10
OC[C@@H]1CCN(c2cc(-c3ccc(Cl)cc3)nc(-c3cccnc3)n2)C[C@@H]1F [Example 251, ((3R,4S)-1-(6-(4-chlorophenyl)-2-(pyridin-3-yl)pyrimidin-4-yl)-3-fluoropiperidin-4-yl)methanol] | < 10
OC[C@@H]1CCN(c2cc(-c3ccc(C(F)(F)F)cc3)nc(-c3cccnc3)n2)C[C@@H]1F [Example 252, ((3R,4S)-3-fluoro-1-(2-(pyridin-3-yl)-6-(4-(trifluoromethyl)phenyl)pyrimidin-4-yl)piperidin-4-yl)methanol] | < 10
OC[C@H]1CCN(c2cc(-c3ccc(Cl)cc3)nc(-c3cccnc3)n2)C[C@@H]1F [Example 253, ((3R,4R)-1-(6-(4-chlorophenyl)-2-(pyridin-3-yl)pyrimidin-4-yl)-3-fluoropiperidin-4-yl)methanol] | < 10
OC[C@H]1CCN(c2cc(-c3ccc(C(F)(F)F)cc3)nc(-c3cccnc3)n2)C[C@@H]1F [Example 254, ((3R,4R)-3-fluoro-1-(2-(pyridin-3-yl)-6-(4-(trifluoromethyl)phenyl)pyrimidin-4-yl)piperidin-4-yl)methanol] | < 10
OC[C@H]1CN(c2cc(-c3ccc(Cl)cc3)nc(-c3cccnc3)n2)C[C@H]1O [Example 255, (3S,4R)-1-(6-(4-chlorophenyl)-2-(pyridin-3-yl)pyrimidin-4-yl)-4-(hydroxymethyl)pyrrolidin-3-ol] | 10 to 100

SMILES | IC50 [nM]
OC[C@H]1CN(c2cc(-c3ccc(C(F)(F)F)cc3)nc(-c3cccnc3)n2)C[C@H]1O [Example 256, (3S,4R)-4-(hydroxymethyl)-1-(2-(pyridin-3-yl)-6-(4-(trifluoromethyl)phenyl)pyrimidin-4-yl)pyrrolidin-3-ol] | < 10
OC[C@H]1CN(c2cc(-c3ccc(Cl)cc3)nc(-c3cccnc3)n2)C[C@@H]1O [Example 257, (3R,4R)-1-(6-(4-chlorophenyl)-2-(pyridin-3-yl)pyrimidin-4-yl)-4-(hydroxymethyl)pyrrolidin-3-ol] | < 10
OC[C@H]1CCN(c2cc(-c3ccc(Cl)cc3)nc(-c3cccnc3)n2)C[C@@H]1O [Example 259, (3R,4R)-1-(6-(4-chlorophenyl)-2-(pyridin-3-yl)pyrimidin-4-yl)-4-(hydroxymethyl)piperidin-3-ol] | < 10
OC[C@@H]1CCN(c2cc(-c3ccc(Cl)cc3)nc(-c3cccnc3)n2)C[C@H]1O [Example 261, (3S,4S)-1-(6-(4-chlorophenyl)-2-(pyridin-3-yl)pyrimidin-4-yl)-4-(hydroxymethyl)piperidin-3-ol] | < 10
Cc1ccncc1-c1nc(-c2ccc(C(F)(F)F)cc2)cc(N2CC[C@H](O)C2)n1 [Example 263, (S)-1-(2-(4-methylpyridin-3-yl)-6-(4-(trifluoromethyl)phenyl)pyrimidin-4-yl)pyrrolidin-3-ol] | < 10
OC[C@@H]1CCN(c2cc(-c3ccc(Cl)cc3)nc(-c3cccnc3)n2)C[C@@H]1O [Example 264, (3R,4S)-1-(6-(4-chlorophenyl)-2-(pyridin-3-yl)pyrimidin-4-yl)-4-(hydroxymethyl)piperidin-3-ol] | 10 to 100
OC[C@@H]1CCN(c2cc(-c3ccc(C(F)(F)F)cc3)nc(-c3cccnc3)n2)C[C@@H]1O [Example 265, (3R,4S)-4-(hydroxymethyl)-1-(2-(pyridin-3-yl)-6-(4-(trifluoromethyl)phenyl)pyrimidin-4-yl)piperidin-3-ol] | < 10
OC[C@@H]1CN(c2cc(-c3ccc(Cl)cc3)nc(-c3cccnc3)n2)C[C@H]1O [Example 266, (3S,4S)-1-(6-(4-chlorophenyl)-2-(pyridin-3-yl)pyrimidin-4-yl)-4-(hydroxymethyl)pyrrolidin-3-ol] | < 10
OC[C@@H]1CN(c2cc(-c3ccc(C(F)(F)F)cc3)nc(-c3cccnc3)n2)C[C@H]1O [Example 267, (3S,4S)-4-(hydroxymethyl)-1-(2-(pyridin-3-yl)-6-(4-(trifluoromethyl)phenyl)pyrimidin-4-yl)pyrrolidin-3-ol] | < 10
Cc1ncccc1-c1nc(-c2ccc(C(F)(F)F)cc2)cc(N2CC[C@H](O)C2)n1 [Example 269, (S)-1-(2-(2-methylpyridin-3-yl)-6-(4-(trifluoromethyl)phenyl)pyrimidin-4-yl)pyrrolidin-3-ol] | < 10
Oc1ncccc1-c1nc(-c2ccc(C(F)(F)F)cc2)cc(N2CC[C@H](O)C2)n1 [Example 270, (S)-3-(4-(3-hydroxypyrrolidin-1-yl)-6-(4-(trifluoromethyl)phenyl)pyrimidin-2-yl)pyridin-2-ol] | < 10
OCC1CCN(c2cc(-c3ccc(Cl)cc3O)nc(-c3cccnc3)n2)CC1 [Example 271, 5-chloro-2-(6-(4-(hydroxymethyl)piperidin-1-yl)-2-(pyridin-3-yl)pyrimidin-4-yl)phenol] | < 10
CC(C)(C)OC(=O)N1CCN(c2cc(-c3ccc(Cl)cc3)nc(-c3cccnc3)n2)C[C@H]1CO [Example 272, tert-butyl (S)-4-(6-(4-chlorophenyl)-2-(pyridin-3-yl)pyrimidin-4-yl)-2-(hydroxymethyl)piperazine-1-carboxylate] | 10 to 100
CS(=O)(=O)Nc1ccc(-c2cc(N3CCC(CO)CC3)nc(-c3cccnc3)n2)cc1 [Example 274, N-(4-(6-(4-(hydroxymethyl)piperidin-1-yl)-2-(pyridin-3-yl)pyrimidin-4-yl)phenyl)methanesulfonamide] | > 1000
CN1CCN(c2ccc(-c3cc(N4CCC(CO)CC4)nc(-c4cccnc4)n3)cc2)CC1 [Example 275, (1-(6-(4-(4-methylpiperazin-1-yl)phenyl)-2-(pyridin-3-yl)pyrimidin-4-yl)piperidin-4-yl)methanol] | 10 to 100
OCC1CCN(c2cc(-c3c(F)cc(F)cc3F)nc(-c3cccnc3)n2)CC1 [Example 277, (1-(2-(pyridin-3-yl)-6-(2,4,6-trifluorophenyl)pyrimidin-4-yl)piperidin-4-yl)methanol] | 100 to 1000
